Experimental data published in ChEMBL document CHEMBL1123004, “Synthesis and antidepressant profiles of phenyl-substituted 2-amino- and 2-[(alkoxycarbonyl)amino]-1,4,5,6-tetrahydropyrimidines” (J Med Chem, 1985).
Active and inactive are the calls of the source. No cut-off for these calls is given here.

How the values were obtained:
[1] = organism: Mus musculus; assay: Antagonism of reserpine-induced hypothermia in mice; format: functional
[2] = system: Mus musculus; assay: In vivo inhibition of uptake of nor epinephrine in mouse heart; value ranges from 3.1-14.6; format: functional
[3] = organism: Rattus norvegicus; assay: Inhibition of uptake of 5-HT in rat brain slices; format: functional
[4] = organism: Rattus norvegicus; assay: Inhibition of uptake of Dopamine in rat brain slices; format: functional
[5] = organism: Rattus norvegicus; assay: Inhibition of uptake of nor epinephrine in rat brain slices; format: functional
[6] = organism: Mus musculus; assay: Antagonism of reserpine-induced hypothermia in mice; Short acting; format: functional
[7] = Lethal dose against mice after peroral administration; range = 111-182; format: toxicity, organism-based; conditions: mouse, in vivo, po
[8] = system: Mus musculus; assay: In vivo inhibition of uptake of nor epinephrine in mouse heart; value ranges from 0.01-0.14; format: functional
[9] = Lethal dose against mice after intraperitoneal administration; range = 25-28; format: toxicity, organism-based; conditions: mouse, in vivo, ip
[10] = organism: Mus musculus; assay: animal or person
[11] = organism: Mus musculus; assay: Antagonism of reserpine-induced hypothermia in mice; I=inactive at 10 mg/ Kg; format: functional, organism-based
[12] = Lethal dose against mice after intraperitoneal administration; range = 31-53; format: toxicity, organism-based; conditions: mouse, in vivo, ip
[13] = organism: Mus musculus; assay: Antagonism of reserpine-induced hypothermia in mice value given as 0.01-0.15; format: functional
[14] = Lethal dose against mice after peroral administration; RANGE = 50-122; format: toxicity, organism-based; conditions: mouse, in vivo, po
[15] = system: Mus musculus; assay: In vivo inhibition of uptake of nor epinephrine in mouse heart; value ranges from 0.01-0.15; format: functional
[16] = organism: Mus musculus; assay: Antagonism of reserpine-induced hypothermia in mice; value given as 0.15-0.6; format: functional
[17] = Lethal dose against mice after peroral administration; format: toxicity, organism-based; conditions: mouse, in vivo, po
[18] = system: Mus musculus; assay: In vivo inhibition of uptake of nor epinephrine in mouse heart; format: functional
[19] = system: Mus musculus; assay: Antagonism of reserpine-induced hypothermia in mice; I=Inactive at 10 mg/kg; format: functional, organism-based; set-up: dose 10 mg/kg

COC(=O)NC1=NCC(c2cccc(Br)c2)CN1 (stereo unspecified)
Min oral dose [1]: 1 mg/kg

CN1CC(c2ccccc2)CN(C)C1=N (stereo unspecified)
Min oral dose [1]: 10 mg/kg

CN(C)CCCN1c2ccccc2CCc2ccccc21 [IMIPRAMINE]
ED50 [2]: 6.7 mg/kg
IC50 [3]: 16 µM
IC50 [4]: 12 µM
IC50 [5]: 4.6 µM
Min oral dose [1]: 0.15 mg/kg

COC(=O)NC1=NC(c2ccccc2)CCN1 (stereo unspecified)
Min oral dose [6]: 2.5 mg/kg

COC(=O)NC1=NCC(c2ccccc2Cl)CN1 (stereo unspecified)
Min oral dose [1]: 10 mg/kg

COC(=O)NC1=NC(c2ccc(F)cc2)CCN1 (stereo unspecified)
Min oral dose [1]: 1 mg/kg

COC(=O)N=C1N(C)CC(c2ccccc2)CN1C (stereo unspecified)
Min oral dose [1]: 10 mg/kg

COC(=O)NC1=NCC(c2ccccc2)CN1 (stereo unspecified)
LD50 [7]: 142 mg/kg
IC50 [3]: 160 µM
ED50 [8]: 0.038 mg/kg
LD50 [9]: 27 mg/kg
IC50 [4]: 24 µM
IC50 [5]: 4.9 µM
Min oral dose [1]: 0.0006 mg/kg

COC(=O)NC1=NCC(c2ccc(C(C)C)cc2)CN1 (stereo unspecified)
Min oral dose [1]: 1 mg/kg

NC1=NC(c2ccccc2)CCN1 (stereo unspecified)
Min oral dose [1]: 10 mg/kg

CNCCCN1c2ccccc2CCc2ccccc21 [DESIPRAMINE]
ED50 [10]: 1.4 mg/kg
IC50 [3]: 12 µM
IC50 [4]: 12 µM

COC(=O)NC1=NCC(c2ccc(Cl)cc2Cl)CN1 (stereo unspecified)
Min oral dose [1]: 10 mg/kg

COC(=O)NC1=NC(c2ccccc2C(F)(F)F)CCN1 (stereo unspecified)
Min oral dose [1]: 10 mg/kg

CNC1=NCC(c2ccccc2)CN1C (stereo unspecified)
Min oral dose [1]: 10 mg/kg

CCCOC(=O)NC1=NC(c2ccccc2)CCN1 (stereo unspecified)
Min oral dose [11]: inactive

NC1=NCC(c2ccccc2)CN1 (stereo unspecified)
LD50 [12]: 42 mg/kg
Min oral dose [13]: 0.15 mg/kg
IC50 [3]: 1.6 µM
LD50 [14]: 78 mg/kg
IC50 [4]: 0.03 µM
ED50 [15]: 0.038 mg/kg
IC50 [5]: 0.01 µM

COC(=O)NC1=NCC(c2c(Cl)cccc2Cl)CN1 (stereo unspecified)
Min oral dose [16]: 0.6 mg/kg

COC(=O)NC1=NC(c2ccc(OC)cc2)CCN1 (stereo unspecified)
Min oral dose [1]: 10 mg/kg

CCOC(=O)NC1=NCC(c2ccccc2)CN1 (stereo unspecified)
LD50 [17]: > 1000 mg/kg
Min oral dose [1]: 0.04 mg/kg

COC(=O)NC1=NCC(c2ccccc2)CN1C (stereo unspecified)
Min oral dose [16]: 0.15 mg/kg

COC(=O)NC1=NC(c2ccccc2)CCN1C (stereo unspecified)
Min oral dose [1]: 10 mg/kg

CN(C)CCC=C1c2ccccc2CCc2ccccc21 [AMITRIPTYLINE]
ED50 [18]: 4.4 mg/kg
IC50 [3]: 12 µM
IC50 [4]: 12 µM
IC50 [5]: 2.5 µM
Min oral dose [1]: 0.15 mg/kg

COC(=O)NC1=NCC(c2ccc(F)cc2)CN1 (stereo unspecified)
Min oral dose [1]: 0.04 mg/kg

COC(=O)NC1=NC(c2ccc(C)cc2)CCN1 (stereo unspecified)
Min oral dose [19]: inactive

NC1=NCC(c2cccc(Br)c2)CN1 (stereo unspecified)
Min oral dose [1]: 10 mg/kg

CNC1=NCC(c2ccccc2)CN1 (stereo unspecified)
Min oral dose [1]: 1 mg/kg

CC(C)OC(=O)NC1=NCC(c2ccccc2)CN1 (stereo unspecified)
LD50 [17]: > 1000 mg/kg
Min oral dose [1]: 0.04 mg/kg
